# Article PMC11617668, “Developing Allosteric Inhibitors of SARS‐CoV‐2 RNA‐Dependent RNA Polymerase” (Chemmedchem, 2024)
# Key:
# [1] = biological target: SARS‐CoV‐2 RdRp complex (nsp12, nsp7, nsp8) (Severe acute respiratory syndrome coronavirus 2, UniProt P0DTD1); test: Fluorescence-based RdRp polymerase assay (SYBR Green I RNA extension); format: biochemical; details: for residual activity (RA) of the SARS‐CoV‐2 RdRp complex: 10 μM screening, AUC with compound / AUC of non-inhibited reaction x 100; for remaining activity at 10 µM: 50 min, read-out: residual activity (RA) of the SARS‐CoV‐2 RdRp complex
# in vitro = details: human
# Protocol: (§1) Briefly, two‐fold fold serial dilutions of compounds were added in triplicate in a 384‐well plate with 15,000 Calu‐3 cells in DMEM medium with 2 % FBS, 100 U of penicillin/ml and 100 μg of streptomycin/ml (all Merck). After 1 h incubation SARS‐CoV‐2 was added at multiplicity of infection 0.01. Following three days incubation at 37 °C in 5 % CO2 the cell viability was determined by addition of XTT solution (Sigma‐Aldrich) for 4 h and the absorbance was measured using EnVision plate reader (Perkin Elmer). Drug concentrations required to reduce viral cytopathic effect by 50 % (EC50) were calculated using nonlinear regression from plots of percentage cell viability versus log10 drug concentration using GraphPad Prism v.9.0.0 (GraphPad Software). Cytotoxicity was evaluated by incubating the same two‐fold serial dilutions of each compound with Calu‐3 cells as above but without virus. Following three days of incubation at 37 °C in 5 % CO2, the cell viability was determined by the addition of XTT solution as above. The compound concentrations resulting in a 50 % reduction of absorbance (CC50) were calculated from plots of the percentage of absorbance versus log10 drug concentration as above.
# SARS‐CoV‐2 [2] = details: Severe acute respiratory syndrome coronavirus 2, Calu-3, 72 h
# Protocol: as §1
# [3] = Kinetic solubility test in enzymatic assay medium; format: physicochemical; details: aqueous HEPES buffer with 5 % DMSO, pH 8, aqueous with cosolvent or surfactant or cyclodextrin, kinetic from dmso stock
# Protocol: Kinetic solubility tests were performed in the medium used for the enzymatic assay–aqueous solution of HEPES buffer with 5 % DMSO. […] This poor aqueous solubility represents a big hurdle in the development of potential antivirals and the improvement of solubility will be considered in further structural optimization efforts of this class of compounds.
# SARS‐CoV‐2 [4] = details: cited from earlier work
Compound,remaining activity at 10 µM [1],other results
"1‐(3,5‐Dichlorophenyl)‐3‐(3‐(Trifluoromethyl)phenyl)guanidine Hydrochloride [Compound 54]",–,residual activity (RA) of the SARS‐CoV‐2 RdRp complex [1]: 100%
"3,4‐Dichloro‐N‐(6‐(Trifluoromethyl)‐1H‐Benzo[d]imidazol‐2‐yl)benzamide [Compound 57]",–,residual activity (RA) of the SARS‐CoV‐2 RdRp complex [1]: 100%
"CCCCNC(=O)Nc1cc(C(=O)OC)cc(C(=O)OC)c1 [Compound 5, Dimethyl 5‐(3‐Butylureido)isophthalate]",100%,–
"COC(=O)c1cc(NC(=O)Nc2cccc(C#N)c2)cc(C(=O)OC)c1 [Compound 6, Dimethyl 5‐(3‐(3‐Cyanophenyl)ureido)isophthalate]",100%,–
"COC(=O)c1cc(NC(=O)Nc2ccc(C#N)cc2)cc(C(=O)OC)c1 [Compound 7, Dimethyl 5‐(3‐(4‐Cyanophenyl)ureido)isophthalate]",100%,–
"COC(=O)c1cc(NC(=O)Nc2ccc(S(N)(=O)=O)cc2)cc(C(=O)OC)c1 [Compound 8, Dimethyl 5‐(3‐(4‐Sulfamoylphenyl)ureido)isophthalate]",100%,–
"COC(=O)c1cc(NC(=O)Nc2cccc(C(F)(F)F)c2)cc(C(=O)OC)c1 [Compound 9, Dimethyl 5‐(3‐(3‐Trifluoromethylphenyl)ureido)isophthalate]",70%,CC50 at 3 days (in vitro): 10.6 µM; EC50 (SARS‐CoV‐2 [2]): > 10 µM
"CCOC(=O)c1cccc(NC(=O)Nc2cc(C(=O)OC)cc(C(=O)OC)c2)c1 [Compound 10, Dimethyl 5‐(3‐(3‐(Ethoxycarbonyl)phenyl)ureido)isophthalate]",100%,–
"COC(=O)c1cc(NC(=O)Nc2cc(C(F)(F)F)cc(C(F)(F)F)c2)cc(C(=O)OC)c1 [Compound 11, Dimethyl 5‐(3‐(3,5‐Bis(trifluoromethyl)phenyl)ureido)isophthalate]",65%,CC50 at 3 days (in vitro): 5.1 µM; EC50 (SARS‐CoV‐2 [2]): > 5 µM
"COC(=O)c1cc(NC(=O)Nc2cc([N+](=O)[O-])cc([N+](=O)[O-])c2)cc(C(=O)OC)c1 [Compound 12, Dimethyl 5‐(3‐(3,5‐Dinitophenyl)ureido)isophthalate]",100%,–
"COC(=O)c1cc(NC(=O)Nc2cccc(C(=O)O)c2)cc(C(=O)OC)c1 [Compound 13, 3‐(3‐(3,5‐Bis(methoxycarbonyl)phenyl)ureido)benzoic Acid]",100%,–
"COC(=O)c1cc(NC(=O)Nc2ccncc2)cc(C(=O)OC)c1 [Compound 14, Dimethyl 5‐(3‐(Pyridin‐4‐yl)ureido)isophthalate]",100%,–
"COC(=O)c1cc(NC(=O)Nc2cccc([N+](=O)[O-])c2)cc(C(=O)OC)c1 [Compound 17, Dimethyl 5‐(3‐(3‐Nitrophenyl)ureido)isophthalate]",51%,–
"O=C(Nc1cccc([N+](=O)[O-])c1)Nc1cccc([N+](=O)[O-])c1 [Compound 18, 1,3‐Bis(3‐nitrophenyl)urea]",100%,–
"O=C(Nc1cccc([N+](=O)[O-])c1)Nc1cc(C(F)(F)F)cc(C(F)(F)F)c1 [Compound 19, 1‐(3,5‐Bis(trifluoromethyl)phenyl)‐3‐(3‐Nitrophenyl)urea]",62%,CC50 at 3 days (in vitro): 3.4 µM; EC50 (SARS‐CoV‐2 [2]): > 3 µM
"COC(=O)c1cc(NC(=O)Nc2cccc([N+](=O)[O-])c2)cc(C(=O)O)c1 [Compound 20, 3‐(Methoxycarbonyl)‐5‐(3‐(3‐Nitrophenyl)ureido)benzoic Acid]",100%,residual activity (RA) of the SARS‐CoV‐2 RdRp complex [1]: complete loss of activity
"O=C(Nc1cc(C(=O)O)cc(C(=O)O)c1)Nc1cccc([N+](=O)[O-])c1 [Compound 21, 5‐(3‐(3‐Nitrophenyl)ureido)isophthalic acid]",100%,residual activity (RA) of the SARS‐CoV‐2 RdRp complex [1]: complete loss of activity
COC(=O)c1cc(NC(=O)Nc2ccc([N+](=O)[O-])cc2)cc(C(=O)OC)c1 [Compound 22],50%,–
COC(=O)c1cc(NC(=O)Nc2ccccc2)cc(C(=O)OC)c1 [Compound 23],100%,–
COC(=O)c1cc(NC(=O)Nc2ccc(C)cc2)cc(C(=O)OC)c1 [Compound 25],100%,–
COC(=O)c1cc(NC(=O)Nc2cccc(F)c2)cc(C(=O)OC)c1 [Compound 26],100%,–
COc1ccc(NC(=O)Nc2cc(C(=O)OC(C)C)cc(C(=O)OC(C)C)c2)c(OC)c1 [Compound 27],100%,–
CC(=O)c1cccc(NC(=O)Nc2cc(C(=O)OC(C)C)cc(C(=O)OC(C)C)c2)c1 [Compound 28],100%,–
O=C(Nc1cccc([N+](=O)[O-])c1)Nc1ccc(Cl)c(C(F)(F)F)c1 [Compound 29],58%,–
O=C(Nc1cccc([N+](=O)[O-])c1)Nc1ccc2ccccc2c1 [Compound 30],73%,–

Compound,remaining activity at 10 µM [1],other results
O=C(Nc1cccc([N+](=O)[O-])c1)Nc1ccccc1Cc1ccccc1 [Compound 31],78%,–
O=C(Nc1ccc(C(F)(F)F)cc1)Nc1cccc([N+](=O)[O-])c1 [Compound 32],100%,–
O=C(Nc1ccc(Cl)cc1)Nc1cccc([N+](=O)[O-])c1 [Compound 33],100%,–
O=C(Nc1ccc(C(=O)O)cc1)Nc1cccc([N+](=O)[O-])c1 [Compound 34],100%,–
CCNS(=O)(=O)c1ccc(NC(=O)Nc2cccc([N+](=O)[O-])c2)cc1 [Compound 35],100%,–
COC(=O)c1ccc(C(=O)OC)c(NC(=O)Nc2cccc([N+](=O)[O-])c2)c1 [Compound 36],100%,–
CC(=O)Nc1cccc(NC(=O)Nc2cccc([N+](=O)[O-])c2)c1 [Compound 37],100%,–
COc1cc(NC(=O)Nc2cccc([N+](=O)[O-])c2)cc(OC)c1 [Compound 38],100%,–
O=C(Nc1cccc([N+](=O)[O-])c1)Nc1cnccn1 [Compound 39],100%,–
O=C(Nc1cccc([N+](=O)[O-])c1)NC1CC1 [Compound 40],100%,–
O=C(Nc1ccc([N+](=O)[O-])cc1)Nc1cc(Cl)cc(Cl)c1 [Compound 41],40%,–
O=C(Nc1ccc([N+](=O)[O-])cc1)Nc1ccccc1Cc1ccccc1 [Compound 42],63%,–
O=[N+]([O-])c1cccc(NC(=S)Nc2ccc(Cl)c(C(F)(F)F)c2)c1 [Compound 43],77%,–
O=[N+]([O-])c1cccc(NC(=S)Nc2ccccc2Cc2ccccc2)c1 [Compound 44],100%,–
"O=C(Nc1cc(Cl)cc(Cl)c1)Nc1cccc(C(F)(F)F)c1 [Compound 47, 1‐(3,5‐Dichlorophenyl)‐3‐(3‐(Trifluoromethyl)phenyl)urea]",45%,solubility kinetic [3]: < 2 µM; CC50 at 3 days (in vitro): 0.49 µM; EC50 (SARS‐CoV‐2 [2]): > 0.49 µM
"O=C(Cc1ccc([N+](=O)[O-])cc1)Nc1cc(Cl)cc(Cl)c1 [Compound 49, N‐(3,5‐Dichlorophenyl)‐2‐(4‐Nitrophenyl)acetamide]",100%,–
"O=C(Cc1cc(Cl)cc(Cl)c1)Nc1ccc([N+](=O)[O-])cc1 [Compound 52, 2‐(3,5‐Dichlorophenyl)‐N‐(4‐Nitrophenyl)acetamide]",100%,–
"O=C(Nc1cc(Cl)cc(Cl)c1)C(=O)Nc1cccc(C(F)(F)F)c1 [Compound 53, N ^1‐(3,5‐Dichlorophenyl)‐N ^2‐(3‐(Trifluoromethyl)phenyl)oxalamide]",100%,–
"FC(F)(F)c1ccc2nc(-c3nc4cc(Cl)c(Cl)cc4[nH]3)[nH]c2c1 [Compound 55, 5,6‐Dichloro‐6′‐(Trifluoromethyl)‐1 H ,1′H‐2,2′‐Bibenzo[d]imidazole]",42%,solubility kinetic [3]: 2.9 ± 0.6 µM; CC50 at 3 days (in vitro): 2.1 µM; EC50 (SARS‐CoV‐2 [2]): > 2.1 µM
"FC(F)(F)c1cccc(Nc2nc3cc(Cl)c(Cl)cc3[nH]2)c1 [Compound 56, 5,6‐Dichloro‐N‐(3‐(Trifluoromethyl)phenyl)‐1H‐Benzo[d]imidazol‐2‐Amine]",60%,solubility kinetic [3]: 7 ± 0.1 µM; CC50 at 3 days (in vitro): 43 µM; EC50 (SARS‐CoV‐2 [2]): > 43 µM
"O=C(Nc1cc(Cl)cc(Cl)c1)c1nc2ccc(C(F)(F)F)cc2[nH]1 [Compound 58, N‐(3,5‐Dichlorophenyl)‐6‐(Trifluoromethyl)‐1H‐Benzo[d]imidazole‐2‐Carboxamide]",100%,–
"O=C(Nc1ccccc1)Nc1ccc(-c2ccc(C(=O)[C@@H]3CCC[C@H]3C(=O)O)cc2)cc1 [Compound A922500, A922500, reference compound]",100%,activity in cell assays against the virus (SARS‐CoV‐2 [4]): active
"COc1cc(NC(=O)Nc2cccc(CNC(=O)O[C@H]3CCOC3)c2)ccc1-c1cnco1 [merimepodib, reference compound]",100%,viral replication (SARS‐CoV‐2 [4]; in combination with remdesivir): completely suppress viral replication
"CNC(=O)c1cc(Oc2ccc(NC(=O)Nc3ccc(Cl)c(C(F)(F)F)c3)c(F)c2)ccn1 [regorafenib, reference compound]",76%,activity in cell assays against the virus (SARS‐CoV‐2 [4]): active
CNC(=O)c1cc(Oc2ccc(NC(=O)Nc3ccc(Cl)c(C(F)(F)F)c3)cc2)ccn1 [sorafenib],–,cell infection (SARS‐CoV‐2 [4]): strongly inhibited cell infection
